# Read-outs that look alike come from different tables or passages of the source.
# Legend:
# Format in all cases: biochemical
# [1] = molecular target: T1, purified human myeloperoxidase (Homo sapiens, UniProt P05164); experiment: Taurine chloramine/TMB assay of HOCl production by purified myeloperoxidase with test compounds; conditions: for [HOCl]: HOCl generated by myeloperoxidase in presence of 10 μM test compounds (DMSO 0.1%), stopped after five minutes with catalase, None = 56.2 ± 2.1; for % Inhibition: inhibition of HOCl production, 10 μM test compounds (DMSO 0.1%), negative = enhancement
# T1 sequence (P05164 49-745): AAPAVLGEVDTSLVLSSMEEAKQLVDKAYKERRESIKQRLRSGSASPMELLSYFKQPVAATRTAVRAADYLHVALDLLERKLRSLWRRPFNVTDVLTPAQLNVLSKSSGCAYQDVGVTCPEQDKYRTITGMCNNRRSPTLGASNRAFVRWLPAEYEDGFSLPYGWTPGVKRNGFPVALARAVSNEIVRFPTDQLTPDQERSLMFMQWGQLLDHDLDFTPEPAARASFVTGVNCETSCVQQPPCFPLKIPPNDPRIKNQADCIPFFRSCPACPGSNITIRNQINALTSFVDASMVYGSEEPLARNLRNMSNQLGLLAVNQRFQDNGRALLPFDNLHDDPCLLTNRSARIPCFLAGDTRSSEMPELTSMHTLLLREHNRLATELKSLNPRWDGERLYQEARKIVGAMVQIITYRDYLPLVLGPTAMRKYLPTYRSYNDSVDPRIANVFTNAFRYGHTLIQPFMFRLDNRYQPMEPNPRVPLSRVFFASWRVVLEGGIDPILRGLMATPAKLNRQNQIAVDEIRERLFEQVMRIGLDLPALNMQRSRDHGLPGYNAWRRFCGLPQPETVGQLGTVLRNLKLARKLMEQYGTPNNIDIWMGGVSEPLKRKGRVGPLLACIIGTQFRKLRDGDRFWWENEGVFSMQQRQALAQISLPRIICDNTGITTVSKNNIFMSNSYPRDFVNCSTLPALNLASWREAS
# Protocol: The taurine chloramine assay of the present invention was used to detect HOCl generated by purified human myeloperoxidase. Hydrogen peroxide (100 μM) was added to 20 mM phosphate buffer pH 6.5 containing 20 nM myeloperoxidase, 100 mM NaCl and 10 mM taurine. The mixture was incubated for 15 minutes at room temperature and the reaction stopped by adding catalase (10 μg/ml). Five minutes later developing reagent was added to detect the generated taurine chloramine. The amount of taurine chloramine produced was compared to that formed by adding 100 μM HOCl to the PBST. […] The concentration of stock hydrogen peroxide was determined using E240 43.6 M^−1 cm^−1 and that of stock hypochlorite using E292 350 M^−1 cm^−1.
# Hypochlorous acid was generated by myeloperoxidase in the absence or presence of 10 μM test compounds under the conditions described above for the time course experiment. Reactions were initiated by adding hydrogen peroxide and stopped five minutes later by adding catalase.
# [2] = molecular target: T1, purified human myeloperoxidase; experiment: as above; conditions: catalase at 20 μg/ml
# [3] = molecular target: T2, MPO (Homo sapiens, UniProt P05164); experiment: MPO taurine chloramine/TMB assay with catalase stop (Example 5)
# T2 sequence (P05164 49-745): T1 sequence (P05164 49-745)
# Protocol: Assay buffer: 20 mM sodium/potassium phosphate buffer pH 6.5 containing 10 mM taurine and 100 mM NaCl.
# Developing reagent: 2 mM TMB, 200 μM KI, 200 mM acetate buffer pH 5.4 with 20% DMF.
# To 10 μl of diluted compounds in assay buffer, 40 μl of MPO (final concentration 2.5 nM) was added for 10 minutes at room temperature. Then 50 μl of H2O2 (final concentration 100 μM), or assay buffer alone as a control, were added for 10 minutes at room temperature. […] Plates were mixed and subsequently read at 650 nm.
# [4] = molecular target: T2, MPO; experiment: In vitro MPO assay measuring HOCl production (Example 1); set-up: purchased Planta
# Protocol: Here we describe an in vitro MPO assay that was developed to assess inhibition of enzyme activity. Essentially the MPO assay was designed to measure the production of hypochlorous acid (HOCl), which is the key physiological product generated by the enzyme in vivo. An outline of the assay reactions is given:
# Compounds were preincubated with the MPO enzyme in buffer for about 15 minutes prior to start of the reaction with H2O2. The whole reaction was carried out at room temperature for 10 minutes in a 96-well plate. […] All test concentrations were done in duplicate with at least two separate determinations (n=2; unless otherwise stated). The inhibitory concentration for a compound is presented as pIC50, which is −log IC50.
Compound,[HOCl] [1] [µM],inhibition at 10 µM ([1]; read-out: % Inhibition) [%],other results
Catalase,8.8 ± 1.3,–,% Inhibition [1]: 84%; inhibition of the formation of HOCl [2]: 90%
N[C@@H](Cc1ccc(O)cc1)C(=O)O [Tyrosine],107.0 ± 0.5,-90,–
Nc1ccc(S(=O)(=O)c2ccc(N)cc2)cc1 [Dapsone],1.8 ± 0.1,97,IC50 ([3]; in the absence of tyrosine): 257 ± 73 nM; IC50 ([3]; in the presence of 8 μM tyrosine): 7120 ± 610 nM
Nc1ccc(Br)cc1 [p-Bromoaniline],2.5 ± 0.1,–,inhibition at 10 µM [1]: 95.6%
Nc1ccc(S(=O)(=O)Nc2nccs2)cc1 [N-1(2-thiazolyl)-sulfanilamide],–,–,IC50 [4]: 1000 nM
COc1ccc2[nH]cc(CCO)c2c1 [5-Methoxytryptophol],–,–,IC50 [4]: 501 nM
"C[S+](C)[O-] [DMSO, dimethylsulphoxide]",52.8 ± 1.2,–,% Inhibition [1]: 6%
"COc1ccc(OC)cc1 [1,4-Dimethoxybenzene]",15.2 ± 1.0,73,–

# Source: US7108997B2, “Assay for detecting inhibitors of the enzyme myeloperoxidase” (AstraZeneca AB, priority 2001, dated 2006)
